Laboratory results from patent US8486996B2, “Aroylfuranes and aroylthiophenes” (Basilea Pharmaceutica AG, priority 2006, dated 2013).
pEC50, pIC50: −log10 of the molar value. Read-outs that look alike come from different tables or passages of the source.

Tests used:
[1] = Hoechst 33342 nuclear staining (48 h read-out); type: cell-based
Summary of the method: (§1)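 Adherent cells pre-spread 24 h before dosing, suspension cells dosed at seeding; compounds at 0.001 μM-10 μM final, 48 h at culture conditions. Hoechst 33342 (2-5 μg/ml) added for 30 min, then fluorescence microscopy scoring of apoptotic nuclear fraction and apoptosis-specific morphology, reported as scores A-D.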

tumor cells [2] = assay: Hoechst 33342 nuclear staining (48 h read-out); type: cell-based
Summary of the method: as §1

[3] = MTS proliferation assay (72 h read-out); type: cell-based; conditions: MRC5 cells
Summary of the method: (§2)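 Viability was read by MTS absorbance at 492 nm after 3 h with reagent. Before that, cells plated a day earlier at 1.5×10^3–10^4 per well had been incubated with test compound at final concentrations of 0.001–10 μM for 72 h; activity is given as category scores A–D.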

tumor cells [4] = assay: MTS proliferation assay (72 h read-out); type: cell-based
Summary of the method: as §2

H460 = assay: Colony Forming Units (read-out 6 days), H460; type: cell-based, human; conditions: colonies containing more than 30 cells, read-out: Colony Forming Units, score based on IC50, H460
Description: (§3) Appropriate numbers of cells (100-150 cells, dependent on the cell type) are being seeded out in 1 ml complete medium into 6-well plates and allowed to attach for 48 h. The compounds are added after 48 h in 500 μl solution. The concentrations are in the range of 0.001 μM-3 μM. Control plates receive the same volume of medium containing the appropriate amount of DMSO. The plates are incubated for 5-7 days at cell culture conditions and subsequently scored for growth of colonies (containing more than 30 cells) by using a microscope.

[5] = Mitochondrial membrane potential, JC-1 (read-out 48 h); type: cell-based; conditions: PBL, JC-1, 48 h
Summary of the method: (§4)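 Tumor cells were treated with test compounds (adherent cells after 24 h of attachment, suspension cells immediately), medium holding up to 5% DMSO. After 48 h, JC-1 (2-5 μg/ml in added medium) was applied for 30 min. Fluorescence microscopy (FITC/TRITC filters) scored the fraction of cells with dissipated mitochondrial membrane potential as categories A-D.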

tumor cells [6] = assay: as above; type: cell-based; conditions: JC-1, 48 h
Summary of the method: as §4

HeLa = assay: Colony Forming Units (read-out 6 days), HeLa; type: cell-based, human; conditions: colonies containing more than 30 cells, read-out: Colony Forming Units, score based on IC50, HeLa
Description: as §3

[7] = MRC5 cells, read-out: Hoechst 33342 nuclear staining EC50, MRC5
[8] = PBL, read-out: Hoechst 33342 nuclear staining EC50, PBL
[9] = HeLa cells, read-out: Hoechst 33342 nuclear staining EC50, HeLa
[10] = Jily cells, read-out: Hoechst 33342 nuclear staining EC50, Jily
[11] = Jurkat cells, read-out: Hoechst 33342 nuclear staining EC50, Jurkat
[12] = HT1080 cells, read-out: MTS proliferation assay IC50, HT1080
[13] = HeLa cells, read-out: MTS proliferation assay IC50, HeLa
[14] = Jily cells, read-out: MTS proliferation assay IC50, Jily
[15] = Jurkat cells, read-out: MTS proliferation assay IC50, Jurkat
[16] = HeLa cells, read-out: Mitochondrial membrane potential (read-out 48 h) HeLa
[17] = Jily cells, read-out: Mitochondrial membrane potential (read-out 48 h) Jily
[18] = Jurkat cells, read-out: Mitochondrial membrane potential (read-out 48 h) Jurkat
[19] = MCF7 cells, read-out: Mitochondrial membrane potential (read-out 48 h) MCF7
[20] = Homo sapiens, MRC5 cells, read-out: Hoechst 33342 nuclear staining EC50, MRC5
[21] = Homo sapiens, HeLa cells, read-out: Hoechst 33342 nuclear staining EC50, HeLa
[22] = Homo sapiens, Jurkat cells, read-out: Hoechst 33342 nuclear staining EC50, Jurkat
[23] = Homo sapiens, HT-1080, HT1080 cells, read-out: MTS proliferation assay IC50, HT1080
[24] = Homo sapiens, HeLa cells, read-out: MTS proliferation assay IC50, HeLa
[25] = Homo sapiens, Jurkat cells, read-out: MTS proliferation assay IC50, Jurkat
[26] = Homo sapiens, HeLa cells, read-out: Mitochondrial membrane potential (read-out 48 h) HeLa
[27] = Homo sapiens, Jurkat cells, read-out: Mitochondrial membrane potential (read-out 48 h) Jurkat
[28] = Homo sapiens, MCF7 cells, read-out: Mitochondrial membrane potential (read-out 48 h) MCF7

| SMILES | pEC50 [1, 7] | pEC50 [1, 8] | pEC50 (tumor cells [2]; [9]) | pEC50 (tumor cells [2]; [10]) | pEC50 (tumor cells [2]; [11]) | pIC50 [3] | pIC50 (tumor cells [4]; [12]) | pIC50 (tumor cells [4]; [13]) | pIC50 (tumor cells [4]; [14]) | pIC50 (tumor cells [4]; [15]) | pIC50 (H460) | pEC50 [5] | pEC50 (tumor cells [6]; [16]) | pEC50 (tumor cells [6]; [17]) | pEC50 (tumor cells [6]; [18]) | pEC50 (tumor cells [6]; [19]) | pIC50 (HeLa) | pEC50 [1, 20] | pEC50 (tumor cells [2]; [21]) | pEC50 (tumor cells [2]; [22]) | further results |
| --- | --- | --- | --- | --- | --- | --- | --- | --- | --- | --- | --- | --- | --- | --- | --- | --- | --- | --- | --- | --- | --- |
| CCOc1ccc(F)cc1C(=O)c1cc2cc(O)ccc2o1 [Example 64] | 6.00 to 7.00 | < 6.00 | 7.00 to 8.00 | 7.00 to 8.00 | > 8.00 | 7.00 to 8.00 | 7.00 to 8.00 | 7.00 to 8.00 | > 8.00 | > 8.00 | 7.00 to 8.00 | < 6.00 | 7.00 to 8.00 | 7.00 to 8.00 | > 8.00 | < 6.00 | 7.00 to 8.00 |  |  |  |  |
| COc1ccc2oc(C(=O)c3cc(F)ccc3N3CC=CCC3)cc2c1 [Example 98] | 7.00 to 8.00 | < 6.00 | 7.00 to 8.00 | 7.00 to 8.00 | > 8.00 | > 8.00 | 7.00 to 8.00 | 7.00 to 8.00 | 7.00 to 8.00 | > 8.00 | 7.00 to 8.00 | < 6.00 | > 8.00 | > 8.00 | > 8.00 | > 8.00 | 7.00 to 8.00 |  |  |  |  |
| COc1ccc2oc(C(=O)c3cc(F)ccc3N3CCOCC3)cc2c1 [Example 38, 2-(5-Fluoro-2-morpholinobenzoyl)-5-methoxybenzofuran] |  | < 6.00 |  | > 8.00 |  |  |  |  | 7.00 to 8.00 |  |  | < 6.00 |  | 7.00 to 8.00 |  |  |  | 7.00 to 8.00 | 7.00 to 8.00 | > 8.00 | pIC50 ([3]; Homo sapiens): 7.00 to 8.00; pIC50 (tumor cells [4]; [23]): 7.00 to 8.00; pIC50 (tumor cells [4]; [24]): 7.00 to 8.00; pIC50 (tumor cells [4]; [25]): 7.00 to 8.00; pIC50 (H460; Homo sapiens, NCI-H460, 144 h): > 8.00; pEC50 (tumor cells [6]; [26]): 7.00 to 8.00; pEC50 (tumor cells [6]; [27]): 7.00 to 8.00; pEC50 (tumor cells [6]; [28]): 7.00 to 8.00; pIC50 (HeLa; Homo sapiens, 144 h): > 8.00 |
| Nc1c(C(=O)c2cccnc2N2CCOCC2)oc2ccc(Cl)cc12 [Example 37, 3-Amino-5-chloro-2-(2-morpholino-3-pyridylcarbonyl)-benzofuran] |  | < 6.00 |  | 7.00 to 8.00 |  |  |  |  | 7.00 to 8.00 |  |  | < 6.00 |  | 7.00 to 8.00 |  |  |  | < 6.00 | 7.00 to 8.00 | 7.00 to 8.00 | pIC50 ([3]; Homo sapiens): 7.00 to 8.00; pIC50 (tumor cells [4]; [23]): 7.00 to 8.00; pIC50 (tumor cells [4]; [24]): 7.00 to 8.00; pIC50 (tumor cells [4]; [25]): > 8.00; pIC50 (H460; Homo sapiens, NCI-H460, 144 h): 7.00 to 8.00; pEC50 (tumor cells [6]; [26]): 6.00 to 7.00; pEC50 (tumor cells [6]; [27]): 7.00 to 8.00; pEC50 (tumor cells [6]; [28]): < 6.00; pIC50 (HeLa; Homo sapiens, 144 h): 7.00 to 8.00 |
| C=CCOc1ccc(OC)cc1C(=O)c1oc2ccc(Cl)cc2c1N [Example 4, 3-Amino-5-chloro-2-(2-allyloxy-5-methoxybenzoyl)-benzofuran] |  | < 6.00 |  | 7.00 to 8.00 |  |  |  |  |  |  |  | < 6.00 |  | 7.00 to 8.00 |  |  |  | 7.00 to 8.00 | 7.00 to 8.00 | 7.00 to 8.00 | pIC50 (H460; Homo sapiens, NCI-H460, 144 h): 7.00 to 8.00; pEC50 (tumor cells [6]; [26]): 7.00 to 8.00; pEC50 (tumor cells [6]; [27]): 7.00 to 8.00; pEC50 (tumor cells [6]; [28]): 7.00 to 8.00; pIC50 (HeLa; Homo sapiens, 144 h): 7.00 to 8.00 |
| C#CCOc1ccccc1C(=O)c1oc2ccc(Cl)cc2c1N [Example 8] | < 6.00 | < 6.00 | 6.00 to 7.00 | 6.00 to 7.00 | 7.00 to 8.00 | 6.00 to 7.00 | 6.00 to 7.00 | 6.00 to 7.00 | 7.00 to 8.00 | 7.00 to 8.00 | 6.00 to 7.00 | < 6.00 | 6.00 to 7.00 | 6.00 to 7.00 | 6.00 to 7.00 | 6.00 to 7.00 | 6.00 to 7.00 |  |  |  |  |
| COc1ccc2oc(C(=O)c3cc(F)ccc3N3CCCCC3)cc2c1 [Example 96] | 6.00 to 7.00 | < 6.00 | 6.00 to 7.00 | 6.00 to 7.00 | 6.00 to 7.00 |  |  |  |  |  | 7.00 to 8.00 | < 6.00 | 7.00 to 8.00 | 7.00 to 8.00 | 7.00 to 8.00 | 7.00 to 8.00 | 7.00 to 8.00 |  |  |  |  |
| CCOc1ccc(F)cc1C(=O)c1cc2cc(OCCOC)ccc2o1 [Example 70] | 6.00 to 7.00 | < 6.00 | 6.00 to 7.00 | 6.00 to 7.00 | 6.00 to 7.00 | 6.00 to 7.00 | 6.00 to 7.00 | 6.00 to 7.00 | 6.00 to 7.00 |  |  | < 6.00 | < 6.00 | 6.00 to 7.00 | 6.00 to 7.00 | < 6.00 |  |  |  |  |  |
| C=CCOc1ccc2oc(C(=O)c3cc(F)ccc3OCC)cc2c1 [Example 67] | < 6.00 | < 6.00 | 6.00 to 7.00 | 7.00 to 8.00 | 7.00 to 8.00 | 7.00 to 8.00 | 6.00 to 7.00 | 7.00 to 8.00 | > 8.00 |  |  | < 6.00 | 6.00 to 7.00 | 7.00 to 8.00 | 7.00 to 8.00 | < 6.00 |  |  |  |  |  |
| COc1ccc2oc(C(=O)c3cccnc3N3CC=CCC3)cc2c1 [Example 88] | 6.00 to 7.00 | < 6.00 | 6.00 to 7.00 | 6.00 to 7.00 | 6.00 to 7.00 | > 8.00 | > 8.00 | 7.00 to 8.00 | > 8.00 | > 8.00 |  | < 6.00 | 7.00 to 8.00 | 7.00 to 8.00 | 7.00 to 8.00 | 7.00 to 8.00 |  |  |  |  |  |
